Measurements taken from patent US5064637A, “Substituted sulfonamide derivatives which inhibit allergic reactions” (Board of Regents, The University of Texas System, priority 1989, dated 1991).
Values belong to the compound of their own block, whether it stands above or below them.

How the values were obtained:
Ig to SMX = assay: Hapten inhibition of Ig binding to SMX-HSA (RAST for IgE, ELISA for IgG, IgA, IgM); set-up: species or system human; settings: free inhibitor, specificity check
Excerpt: SMX-HSA was used in radioallergoasorbent test (RAST) assays for IgE and ELISA assays for IgG, IgA, and IgM.

IgG to SMX [1] = assay: Example 1: inhibition of IgG binding, ELISA, serum preincubated overnight with inhibitor; set-up: species or system human; settings: for inhibition of IgG binding (in words): serum dilutions 1:40, 1:80, 1:160; for Reduction in percent binding: 20 microliter of 10 mg/ml inhibitor to 180 microliter serum, overnight
Procedure: This experiment was performed to determine the amount of binding inhibition achieved with various inhibitory agents. […] The experiments were performed in 96-well microtiter plates having 8 rows
designated A-H, and 12 columns designated 1-12. Each well of the microtiter plate was given a designation in accordance with the above grid system. All samples were diluted in phosphate buffered saline (PBS) to the designated dilution factor. The serum dilution levels used in this study were 1:40, 1:80 and 1:160, v/v.
A sample of each serum dilution was preincubated overnight with a IgG binding inhibitor selected from Table 2. A 2o-lambda (mioroliter) volume from a lo mg/ml solution of the selected inhibitor was added to a 180 lambda volume of the particular serum sample.
One hundred milligrams (I00 mg) of each of the listed compounds was weighed out and added to a 10 ml volume of 100% PBS so as to achieve a final concentration of 10 mg/ml by weight of the inhibitor.
In accordance with the aforedescribed system, the wells at Row A, columns 1 and 2 of the microtiter plate, received 100 microliters of phosphate buffered saline as a blank. Row A, columns 3 and 4, received normal serum diluted 1:40 in PBS, and served as a negative control. Row A, columns 5 and 6 received -00 microliters of a positive serum (i.e., serum sample positive for IgG to SMX) diluted -:40. Row A, columns 7 and 8, received positive serum diluted at 1:80. Similarly, Row A, columns 9 and 10, received 100 microliters positive serum diluted at 1:160. […] The completed microtiter plate consisted of the following sample distribution (see Table 3).
The present invention was tested using a modified ELISA assay. The specific ELISA used employs the following reagents, standards and antibodies.

IgG to SMX [2] = assay: Example 2: hapten inhibition of IgG binding, ELISA, no preincubation; set-up: species or system human; settings: final serum dilution 1:80
Procedure: The assay was set up using a 96 well microtiter plate. None of the serum samples were preincubated with inhibitor. Serum used was positive (+) for IgG to SMX, and was used at a final dilution of […] for all wells.
A variety of binding inhibitors were employed at varying concentrations.
A 50 microliter volume of each numerically designated inhibitor was added each well of the plate. A 50 microliter volume of serum (1:40 dilution) positive to IgG to SMX was then added to each well. The final dilution of serum in each was then 1:80.
The microtiter plate was then shaken slightly to mix the contents of each well and then the standard ELISA assay was performed. The plate was then allowed to incubate for 2 hours at room temperature. The plates were then washed and the OD readings taken for each well.
Percent inhibition was then calculated for each sample on the basis of decrease in OD.

IgG to SMX [3] = assay: Example 3: inhibition studies, ELISA, serum preincubated overnight with inhibitor; type: binding, human; settings: serum 1:40
Procedure: This study was conducted to confirm results on binding inhibition obtained in Example 2. Two positive serums (i.e., positive for IgG to SMX) were employed, including the positive serum used in Examples 1 and 2. PBS (phosphate buffered saline) and a normal serum were also tested in this study.
All serum used were at a 1:40 final dilution. Serum was diluted in PBS.
Several binding inhibitors at various dilutions were used. The particular inhibitors and the dilutions thereof examined appear in Table 8, along with their numerical designations.
Positive serum samples were first preincubated overnight with 50 microliter of the numerically designated inhibitors (10 mg/ml inhibitor solution - See Example I).
A standard ELISA assay was conducted using a 96 well microtiter plate as described for Example I. Row A, wells 3 and 4, received normal serum diluted 1:40 in PBS. Other wells received 10 microliter of positive serum A (Row A, well 5 through Row F, well 6) or positive serum B (Row F, well 7 through Row H, well 6) at a 1:40 dilution in PBS.
That percent binding inhibition obtained for each sample appears at Table 10.

[4] = test system: IgE to SM (N^4 -SMX determinants); settings: cited from earlier work

inhibition of antibody binding to SMX-HSA (in words) (Ig to SMX; listed as N^4 -sulfamethoxazoyl histidine): among the most active | inhibition of antibody binding to SMX-HSA (in words) (Ig to SMX; listed as SMX-HD): inhibition of binding | % Inhibition (IgG to SMX [2]; inhibitor 10 mg/ml): 54%
Compound: N^4 -sulfamethoxazoyl-L-histidine [SMX-Histidine]
inhibition of IgG binding (in words) (IgG to SMX [1]): significant reduction in binding at the 1:80 and I:160 serum dilution, but none at the 1:40 dilution

Compound: SMX-Lysine
% Inhibition (IgG to SMX [2]; inhibitor 10 mg/ml): 51%

Compound: N^4 -sulfamethoxazoyl-poly-L-tyrosine [SMX-poly-L-tyrosine]
inhibition of IgG binding (in words) (IgG to SMX [1]): significantly inhibit binding | % Inhibition (IgG to SMX [2]; inhibitor 0.1 mg/ml): 0% | % Inhibition (IgG to SMX [2]; inhibitor 0.3 mg/ml): 2% | % Inhibition (IgG to SMX [2]; inhibitor 1 mg/ml): 24% | % Inhibition (IgG to SMX [2]; inhibitor 3 mg/ml): 46% | % Inhibition (IgG to SMX [2]; inhibitor 10 mg/ml): 50%

% Inhibition (IgG to SMX [2]; inhibitor 10 mg/ml): 32%
Compound: COC(=O)C(N)Cc1ccc(O)c(N=Nc2ccc(S(=O)(=O)Nc3cc(C)on3)cc2)c1 (centres unmarked) [SMX-Tyrosine Methyl ester]
inhibition of IgG binding (in words) (IgG to SMX [1]): considerable inhibition at the 1:40 serum dilution only

Compound: Sulfanilic-Histidine
% Inhibition (IgG to SMX [2]; inhibitor 10 mg/ml): 60%

Compound: SMX-Imidazole
% Inhibition (IgG to SMX [2]; inhibitor 10 mg/ml): 61%

Reduction in percent binding (IgG to SMX [1]; serum dilution 1:40): 28% | Reduction in percent binding (IgG to SMX [1]; serum dilution 1:80): 50% | Reduction in percent binding (IgG to SMX [1]; serum dilution 1:160): 42%
Compound: Cc1cc(NS(=O)(=O)c2ccc(N=Nc3cc(CC(N)C(=O)O)ccc3O)cc2)no1 (centres unmarked) [Inhibitor 3]
% Reduction in OD (IgG to SMX [3]; inhibitor 0.1 mg/ml (Table 8)): 32%

Compound: Sulfamerazine-Histidine
% Inhibition (IgG to SMX [2]; inhibitor 10 mg/ml): 35%

Compound: SMX-Tryptophan
% Inhibition (IgG to SMX [2]; inhibitor 10 mg/ml): 52%

inhibition of IgG binding (in words) (IgG to SMX [1]): significantly inhibit binding | % Inhibition (IgG to SMX [2]; inhibitor 0.1 mg/ml): 51% | % Inhibition (IgG to SMX [2]; inhibitor 0.3 mg/ml): 54% | % Inhibition (IgG to SMX [2]; inhibitor 1 mg/ml): 57% | % Inhibition (IgG to SMX [2]; inhibitor 3 mg/ml): 70% | % Inhibition (IgG to SMX [2]; inhibitor 10 mg/ml): 59%
Compound: Cc1cc(NS(=O)(=O)c2ccc(N=Nc3cc(CC(N)C(=O)O)ccc3O)cc2)no1 (centres unmarked) [SMX-Tyrosine]

Compound: Nc1ccc(S(=O)(=O)O)cc1 [sulfanilic acid]
inhibition of IgE binding of one highly reactive serum (in words) [4]: not

Compound: Cc1cc(NS(=O)(=O)c2ccc(N)cc2)no1 [SMX, Sulfamethoxazole, reference compound]
inhibition of antibody binding to SMX-HSA (in words) (Ig to SMX): also inhibited binding, but were usually less efficient | inhibition of IgE binding of one highly reactive serum (in words) [4]: significantly inhibited

Compound: Cc1ccnc(NS(=O)(=O)c2ccc(N)cc2)n1 [sulfamerazine]
inhibition of IgE binding of one highly reactive serum (in words) [4]: significantly inhibited

Compound: Cc1nnc(NS(=O)(=O)c2ccc(N)cc2)s1 [sulfamethizole]
inhibition of IgE binding of one highly reactive serum (in words) [4]: significantly inhibited

Compound: COc1cc(Cc2cnc(N)nc2N)cc(OC)c1OC [Trimethoprim]
inhibition of IgE binding of one highly reactive serum (in words) [4]: not

Compound: Sulfamethizole-histidine [Sulfamethazole-histidine]
% Inhibition (IgG to SMX [2]; inhibitor 10 mg/ml): 7%

Compound: CC1(C)SC(C(NC(=O)Cc2ccccc2)C(=O)NCc2ccccc2)NC1C(=O)O (centres unmarked) [Inhibitor 28]
% Reduction in OD (IgG to SMX [3]; inhibitor 10 mg/ml (Table 8), serum A or B not stated): 0%
